# Measured values published in patent publication US9533946B1, “N-carbamoylputrescine to enhance muscle protein synthesis” (CITRAGE, priority 2016, dated 2017).
# Marks after values point to notes of the source that are not given here.
# Experiments:
# [1] = Plasma biological parameters after NCP-supplemented diet in rats; assay type: in vivo
# Experimental: (§1) Eight-week old Sprague-Dawley rats (Charles Rivers, Lyon, France) were used. They were placed in individual cages and acclimatized for two weeks to our animal facility. During this period they received standard rodent chow (A04, UAR, Villemoisson-sur-Orge, France) and water ad libitum.
# (§2) After acclimatization twenty eight-month old rats were randomized into three groups in order to receive for two weeks a standard diet either alone (n=6; control group) or supplemented with NCP either 5 mg/kg/d (n=7, NCP5 group) or 50 mg/kg/d (n=7; NCP50 group). Their weight, behaviour and mortality were monitored throughout the feeding period.
# (§3) At the end of the feeding period, the rats, in the fasted state, were anesthetized by isoflurane inhalation and euthanized by decapitation.
# (§4) Mixed blood was collected onto heparinized tubes and rapidly centrifuged. The liver was immediately removed and weighed, and a sample was cut off, frozen in liquid nitrogen, and stored at −80° C. until analysis. For the jejunum and ileum, the intestine was washed with cold NaCl (0.9%) and reverted. Thereafter the intestinal mucosa was scraped, rapidly frozen in liquid nitrogen, and stored at −80° C. until analysis. Two muscles of the hindlimb, tibialis (rich in type II fibres) and soleus (rich in type I fibres), and the right kidney were rapidly removed, weighed, frozen in liquid nitrogen, and stored at −80° C. until analysis. Body composition was assessed by dissection and lean mass (carcass), visceral fat mass, sub-cutaneous fat mass (subcutaneous fat and skin) and mass of the viscera were determined.
# (§5) Biological parameters studied were: • in tissues: NCP, protein and amino acid contents • in plasma: amino acids, liver function tests (plasma aspartate aminotransferase, alanine aminotransferase, alkaline phosphatase, and bilirubin), muscle enzymes (plasma creatine kinase, and lactate dehydrogenase), plasma electrolytes (sodium, potassium, chloride, bicarbonates), total protein, urea, creatinine, calcium, phosphate, magnesium, uric acid, glucose, cholesterol and triglycerides. […]
# [2] = General effects of NCP-supplemented diet in rats (weight, behaviour, mortality, body composition); assay type: in vivo; conditions: for Initial weight: n = 7, before feeding period, mean ± SD; for Daily weight gain / Final weight / Weight gain: n = 7, mean ± SD
# Experimental: as §1, §2, §3, §4
# [3] = system: soleus (rich in type I fibres); assay: Soleus amino acid content after NCP-supplemented diet in rats; assay type: in vivo, Sprague-Dawley rats; design: Soleus Serine content / Soleus Asparagine content / Soleus Glutamate content / Soleus Glycine content / Soleus Citrulline content / Soleus Valine content / Soleus Isoleucine content / Soleus Leucine content / Soleus Tyrosine content / Soleus Phenylalanine content / Soleus Ornithine content / Soleus Histidine content / Soleus Lysine content / Soleus Arginine content / Soleus Proline content / Soleus Taurine content / Soleus Aspartate content / Soleus Threonine content: unit not given here
# Experimental: as §1
# as §2, with “[…]; […]).” for “NCP5 group) or 50 mg/kg/d (n=7; NCP50 group).”
# as §3, §4
# Biological parameters studied were: • in tissues: NCP, protein and amino acid contents • in plasma: amino acids, liver function tests (plasma aspartate aminotransferase, alanine aminotransferase, alkaline phosphatase, and bilirubin), muscle enzymes (plasma creatine kinase, and lactate dehydrogenase), plasma electrolytes (sodium, potassium, chloride, bicarbonates), total protein, urea, creatinine, calcium, phosphate, magnesium, uric acid, glucose, cholesterol and triglycerides. Results General Effects of N-carbamoyl Putrescine
# [4] = system: liver, kidney, tibialis, and jejunal and ileal mucosa; assay: Protein contents of other tissues after NCP-supplemented diet in rats; assay type: in vivo, Sprague-Dawley rats; conditions: between the three groups
# Experimental: as §1, §2, §3
# as §4, with “Two muscles of the hindlimb, tibialis (rich in type II fibres) and soleus (rich in type I fibres), and the right kidney were rapidly removed, weighed, frozen in liquid nitrogen, and stored at −80° C. until analysis.” left out, “determined. […]” for “determined.”
# [5] = system: soleus (rich in type I fibres); assay: Soleus protein content after NCP-supplemented diet in rats; assay type: in vivo, Sprague-Dawley rats
# Experimental: as §1, §2, §3, §4, §5
# [6] = rats, NCP 5 mg/kg/d in diet, two weeks
# [7] = rats, NCP 50 mg/kg/d in diet, two weeks
# [8] = rats, NCP 5 or 50 mg/kg/d in diet, two weeks
structure (smiles),measurement,setting,value
"NCCCCNC(N)=O [NCP, 1-(4-aminobutyl) urea]",Plasma urea,"[1]; NCP50 group vs NCP5, FIG. 1",higher
same,Plasma urea,[1]; the two NCP-supplemented groups compared to control rats,no difference
same,"plasma electrolytes, hepatic and muscular enzymes, creatinine, glucose, cholesterol, triglycerides and uric acid levels","[1]; three groups (control, NCP5, NCP50), data not shown",No difference
same,side effects,"[2]; mammals, after administration",no side effects were noticed
same,Initial weight,"[2]; rats, NCP 5 mg/kg group",264.9 ± 16 g
same,Daily weight gain,[2]; [6],3.44 ± 0.58 g/day
same,Final weight,[2]; [6],313.1 ± 18.1 g
same,Weight gain,[2]; [6],48.1 ± 8.1 g
same,Initial weight,"[2]; rats, NCP 50 mg/kg group",264.9 ± 8.2 g
same,Daily weight gain,[2]; [7],3.65 ± 0.62 g/day
same,Final weight,[2]; [7],316.1 ± 13.9 g
same,Weight gain,[2]; [7],51.2 ± 8.7 g
same,general behavior,[2]; [8],No rats showed abnormal general behavior
same,weight gain compared to controls,[2]; [8],no difference
same,"body composition (lean mass, fat mass, mass of the viscera, liver mass)","[2]; rats, NCP 5 or 50 mg/kg/d vs control, data not shown",no difference between the groups
same,Soleus Alanine content,"[3]; NCP 5 mg/kg, n = 7, mean ± SD",1735 ± 385^ab μmol/g
same,Soleus Arginine content,"[3]; NCP 5 mg/kg, n = 7, mean ± SD",381 ± 115
same,Soleus Asparagine content,"[3]; NCP 5 mg/kg, n = 7, mean ± SD",519 ± 106
same,Soleus Aspartate content,"[3]; NCP 5 mg/kg, n = 7, mean ± SD",4195 ± 703
same,Soleus Citrulline content,"[3]; NCP 5 mg/kg, n = 7, mean ± SD",351 ± 53
same,Soleus Glutamate content,"[3]; NCP 5 mg/kg, n = 7, mean ± SD",3753 ± 684
same,Soleus Glutamine content,"[3]; NCP 5 mg/kg, n = 7, mean ± SD",7605 ± 1016^ab μmol/g
same,Soleus Glycine content,"[3]; NCP 5 mg/kg, n = 7, mean ± SD",1932 ± 516
same,Soleus Histidine content,"[3]; NCP 5 mg/kg, n = 7, mean ± SD",415 ± 50^a μmol/g
same,Soleus Isoleucine content,"[3]; NCP 5 mg/kg, n = 7, mean ± SD",83 ± 17
same,Soleus Leucine content,"[3]; NCP 5 mg/kg, n = 7, mean ± SD",103 ± 23
same,Soleus Lysine content,"[3]; NCP 5 mg/kg, n = 7, mean ± SD",933 ± 222
same,Soleus Ornithine content,"[3]; NCP 5 mg/kg, n = 7, mean ± SD",75 ± 12
same,Soleus Phenylalanine content,"[3]; NCP 5 mg/kg, n = 7, mean ± SD",75 ± 19
same,Soleus Proline content,"[3]; NCP 5 mg/kg, n = 7, mean ± SD",196 ± 42
same,Soleus Serine content,"[3]; NCP 5 mg/kg, n = 7, mean ± SD",1933 ± 384
same,Soleus Taurine content,"[3]; NCP 5 mg/kg, n = 7, mean ± SD",23882 ± 2585
same,Soleus Threonine content,"[3]; NCP 5 mg/kg, n = 7, mean ± SD",512 ± 109
same,Soleus Tyrosine content,"[3]; NCP 5 mg/kg, n = 7, mean ± SD",106 ± 15
same,Soleus Valine content,"[3]; NCP 5 mg/kg, n = 7, mean ± SD",182 ± 22
same,Soleus Alanine content,"[3]; NCP 50 mg/kg, n = 6, mean ± SD",2025 ± 182^b μmol/g
same,Soleus Arginine content,"[3]; NCP 50 mg/kg, n = 6, mean ± SD",395 ± 62
same,Soleus Asparagine content,"[3]; NCP 50 mg/kg, n = 6, mean ± SD",538 ± 124
same,Soleus Aspartate content,"[3]; NCP 50 mg/kg, n = 6, mean ± SD",4742 ± 1443
same,Soleus Citrulline content,"[3]; NCP 50 mg/kg, n = 6, mean ± SD",379 ± 65
same,Soleus Glutamate content,"[3]; NCP 50 mg/kg, n = 6, mean ± SD",4074 ± 390
same,Soleus Glutamine content,"[3]; NCP 50 mg/kg, n = 6, mean ± SD",8547 ± 988^b μmol/g
same,Soleus Glycine content,"[3]; NCP 50 mg/kg, n = 6, mean ± SD",2145 ± 153
same,Soleus Histidine content,"[3]; NCP 50 mg/kg, n = 6, mean ± SD",494 ± 6
same,Soleus Isoleucine content,"[3]; NCP 50 mg/kg, n = 6, mean ± SD",91 ± 22
same,Soleus Leucine content,"[3]; NCP 50 mg/kg, n = 6, mean ± SD",113 ± 32
same,Soleus Lysine content,"[3]; NCP 50 mg/kg, n = 6, mean ± SD",1009 ± 168
same,Soleus Ornithine content,"[3]; NCP 50 mg/kg, n = 6, mean ± SD",74 ± 15
same,Soleus Phenylalanine content,"[3]; NCP 50 mg/kg, n = 6, mean ± SD",77 ± 11
same,Soleus Proline content,"[3]; NCP 50 mg/kg, n = 6, mean ± SD",199 ± 26
same,Soleus Serine content,"[3]; NCP 50 mg/kg, n = 6, mean ± SD",1964 ± 248
same,Soleus Taurine content,"[3]; NCP 50 mg/kg, n = 6, mean ± SD",25223 ± 1987
same,Soleus Threonine content,"[3]; NCP 50 mg/kg, n = 6, mean ± SD",571 ± 67
same,Soleus Tyrosine content,"[3]; NCP 50 mg/kg, n = 6, mean ± SD",126 ± 21
same,Soleus Valine content,"[3]; NCP 50 mg/kg, n = 6, mean ± SD",194 ± 24
same,"concentration of Glutamine, alanine and histidine in soleus muscle","[3]; with NCP administration, positive correlation of glutamine and alanine with dose (p=0.015, p=0.013)",significantly increased
same,"liver, kidney, tibialis, and jejunal and ileal mucosa protein contents",[4],similar
same,protein level in soleus,"[5]; NCP5 group (5 mg/kg/d, two weeks), control 12.7±1.8, p=0.018 vs control",14.5±0.7 g/100 g
same,protein level in soleus vs control group,"[5]; NCP5 vs control, p=0.018",higher
same,protein level in soleus,"[5]; NCP50 group (50 mg/kg/d, two weeks), control 12.7±1.8",14.0±0.8 g/100 g
